Assay: Release (dissolution) profile of capsules, USP Apparatus 2 (paddle)
Assay type: physicochemical
Conditions: for Release rate (percentage of Compound 1 released over time): 0.04 mg capsule, Poloxamer 188:food grade GMS 50:50, T = 0 (pre-curing)
Text: USP Apparatus 2 (Paddle Apparatus) is described, for example, in the United States Pharmacopeial Convention, Feb. 1, 2012, Chapter <711> (“Dissolution”), incorporated by reference herein in its entirety. See http://www.usp.org/sites/default/files/usp_pdf/EN/USPNF/revisions/m99470-gc_711.pdf. The assembly from Apparatus 1 is used, except that a paddle formed from a blade and a shaft is used as the stirring element. The shaft is positioned so that its axis is not more than 2 mm from the vertical axis of the vessel at any point and rotates smoothly without significant wobble that could affect the results. The vertical center line of the blade passes through the axis of the shaft so that the bottom of the blade is flush with the bottom of the shaft. A distance of 25±2 mm between the bottom of the blade and the inside bottom of the vessel is maintained during the test. The metallic or suitably inert, rigid blade and shaft comprise a single entity. A suitable two-part detachable design may be used provided the assembly remains firmly engaged during the test. The paddle blade and shaft may be coated with a suitable coating so as to make them inert. The dosage unit is allowed to sink to the bottom of the vessel before rotation of the blade is started. A small, loose piece of nonreactive material, such as not more than a few turns of wire helix, may be attached to dosage units that would otherwise float. Other validated sinker devices may be used.
Unless otherwise specified, the release profiles for capsules were measured using USP Apparatus 2 (paddle).
All release profiles disclosed in Tables 3c-3p were measured with USP Apparatus 2 (paddle) at 50 rpm in 500 mL of aqueous sodium phosphate at a concentration of 0.05 M (pH=6.8). The values in a given table relate to capsules obtained from the same batch. Values shown represent mean values over a number of dissolution tests (“n” in each table) in each case.

## O=C(O)COC[C@H]1CC[C@H](COC(=O)N(c2ccccc2)c2ccc(Cl)cc2)CC1 [Compound 1, 2-(((1r,4r)-4-(((4-chlorophenyl)(phenyl)carbamoyloxy)methyl)cyclohexyl)methoxy)acetic acid]
480 min
  Release rate (percentage of Compound 1 released over time): 72.7%
600 min
  Release rate (percentage of Compound 1 released over time): 79.8%
720 min
  Release rate (percentage of Compound 1 released over time): 83.1%
735 min
  Release rate (percentage of Compound 1 released over time): 84.6%
0.04 mg of Compound 1 in Gelucire 50/13, storage at 40° C. and 75% RH for two weeks (FIG. 5)
  change of release rate after storage: rapid increase
0.5 mg Compound 1, Poloxamer 188:food grade GMS 70:30, 50:50 and 30:70 (FIGS. 8-10)
  release rate relative to immediate-release composition: slower rate
0.5 mg Compound 1, Poloxamer 188:food grade GMS 70:30, 50:50 and 30:70, storage at 40° C. and 75% RH for about one month (FIGS. 8-10)
  release rate after storage: substantially the same
Table 3c: size 4 capsule, 0.03 mg Compound 1, Poloxamer 188:food grade GMS 70:30, 20 min
  mean value (n = 6) of % of Compound 1 released: 14.8%
Table 3c: size 4 capsule, 0.03 mg Compound 1, Poloxamer 188:food grade GMS 70:30, 30 min
  mean value (n = 6) of % of Compound 1 released: 36.1%
Table 3c: size 4 capsule, 0.03 mg Compound 1, Poloxamer 188:food grade GMS 70:30, 45 min
  mean value (n = 6) of % of Compound 1 released: 65.4%
Table 3c: size 4 capsule, 0.03 mg Compound 1, Poloxamer 188:food grade GMS 70:30, 60 min
  mean value (n = 6) of % of Compound 1 released: 83.8%
Table 3c: size 4 capsule, 0.03 mg Compound 1, Poloxamer 188:food grade GMS 70:30, 90 min
  mean value (n = 6) of % of Compound 1 released: 95.5%
Table 3c: size 4 capsule, 0.03 mg Compound 1, Poloxamer 188:food grade GMS 70:30, 120 min
  mean value (n = 6) of % of Compound 1 released: 98.4%
Table 3e: size 4 capsule, 0.5 mg Compound 1, Poloxamer 188:food grade GMS 70:30, 30 min
  mean value (n = 4) of % of Compound 1 released: 17.7%
Table 3e: size 4 capsule, 0.5 mg Compound 1, Poloxamer 188:food grade GMS 70:30, 60 min
  mean value (n = 4) of % of Compound 1 released: 56.9%
Table 3e: size 4 capsule, 0.5 mg Compound 1, Poloxamer 188:food grade GMS 70:30, 120 min
  mean value (n = 4) of % of Compound 1 released: 95.1%
Table 3f: size 4 capsule, 0.5 mg Compound 1, Poloxamer 188:food grade GMS 70:30, 30 min
  mean value (n = 4) of % of Compound 1 released: 19.3%
Table 3f: size 4 capsule, 0.5 mg Compound 1, Poloxamer 188:food grade GMS 70:30, 60 min
  mean value (n = 4) of % of Compound 1 released: 61.9%
Table 3f: size 4 capsule, 0.5 mg Compound 1, Poloxamer 188:food grade GMS 70:30, 120 min
  mean value (n = 4) of % of Compound 1 released: 98.1%
Table 3g-1: Storage Time = 0, size 4 capsule, 0.5 mg Compound 1, Poloxamer 188:food grade GMS 70:30, 30 min
  mean value (n = 4) of % of Compound 1 released: 33.0%
Table 3g-1: Storage Time = 0, size 4 capsule, 0.5 mg Compound 1, Poloxamer 188:food grade GMS 70:30, 45 min
  mean value (n = 4) of % of Compound 1 released: 64.2%
Table 3g-1: Storage Time = 0, size 4 capsule, 0.5 mg Compound 1, Poloxamer 188:food grade GMS 70:30, 60 min
  mean value (n = 4) of % of Compound 1 released: 86.0%
Table 3g-2 (Storage Time = 2 weeks), first line, size 4 capsule, 0.5 mg Compound 1, Poloxamer 188:food grade GMS 70:30, 30 min
  mean value (n = 4) of % of Compound 1 released: 33.0%
Table 3g-2 (Storage Time = 2 weeks), first line, size 4 capsule, 0.5 mg Compound 1, Poloxamer 188:food grade GMS 70:30, 45 min
  mean value (n = 4) of % of Compound 1 released: 64.2%
Table 3g-2 (Storage Time = 2 weeks), first line, size 4 capsule, 0.5 mg Compound 1, Poloxamer 188:food grade GMS 70:30, 60 min
  mean value (n = 4) of % of Compound 1 released: 86.0%
Table 3g-2 (Storage Time = 2 weeks), second line, size 4 capsule, 0.5 mg Compound 1, Poloxamer 188:food grade GMS 70:30, 30 min
  mean value (n = 4) of % of Compound 1 released: 34.8%
Table 3g-2 (Storage Time = 2 weeks), second line, size 4 capsule, 0.5 mg Compound 1, Poloxamer 188:food grade GMS 70:30, 45 min
  mean value (n = 4) of % of Compound 1 released: 67.9%
Table 3g-2 (Storage Time = 2 weeks), second line, size 4 capsule, 0.5 mg Compound 1, Poloxamer 188:food grade GMS 70:30, 60 min
  mean value (n = 4) of % of Compound 1 released: 89.4%
Table 3i: size 4 capsule, 0.5 mg Compound 1, Poloxamer 188:food grade GMS 50:50, 30 min
  mean value (n = 4) of % of Compound 1 released: 7.5%
Table 3i: size 4 capsule, 0.5 mg Compound 1, Poloxamer 188:food grade GMS 50:50, 60 min
  mean value (n = 4) of % of Compound 1 released: 21.1%
Table 3i: size 4 capsule, 0.5 mg Compound 1, Poloxamer 188:food grade GMS 50:50, 120 min
  mean value (n = 4) of % of Compound 1 released: 41.1%
Table 3i: size 4 capsule, 0.5 mg Compound 1, Poloxamer 188:food grade GMS 50:50, 180 min
  mean value (n = 4) of % of Compound 1 released: 58.9%
Table 3i: size 4 capsule, 0.5 mg Compound 1, Poloxamer 188:food grade GMS 50:50, 240 min
  mean value (n = 4) of % of Compound 1 released: 75.3%
Table 3i: size 4 capsule, 0.5 mg Compound 1, Poloxamer 188:food grade GMS 50:50, 360 min
  mean value (n = 4) of % of Compound 1 released: 94.3%
Table 3i: size 4 capsule, 0.5 mg Compound 1, Poloxamer 188:food grade GMS 50:50, 480 min
  mean value (n = 4) of % of Compound 1 released: 100.0%
Table 3j: size 4 capsule, 0.5 mg Compound 1, Poloxamer 188:food grade GMS 50:50, 30 min
  mean value (n = 4) of % of Compound 1 released: 7.8%
Table 3j: size 4 capsule, 0.5 mg Compound 1, Poloxamer 188:food grade GMS 50:50, 60 min
  mean value (n = 4) of % of Compound 1 released: 19.5%
Table 3j: size 4 capsule, 0.5 mg Compound 1, Poloxamer 188:food grade GMS 50:50, 120 min
  mean value (n = 4) of % of Compound 1 released: 38.6%
Table 3j: size 4 capsule, 0.5 mg Compound 1, Poloxamer 188:food grade GMS 50:50, 180 min
  mean value (n = 4) of % of Compound 1 released: 56.8%
Table 3j: size 4 capsule, 0.5 mg Compound 1, Poloxamer 188:food grade GMS 50:50, 240 min
  mean value (n = 4) of % of Compound 1 released: 72.9%
Table 3j: size 4 capsule, 0.5 mg Compound 1, Poloxamer 188:food grade GMS 50:50, 360 min
  mean value (n = 4) of % of Compound 1 released: 90.7%
Table 3j: size 4 capsule, 0.5 mg Compound 1, Poloxamer 188:food grade GMS 50:50, 480 min
  mean value (n = 4) of % of Compound 1 released: 97.4%
Table 3k: size 4 capsule, 0.03 mg Compound 1, Poloxamer 188:food grade GMS 50:50, 30 min
  mean value (n = 6) of % of Compound 1 released: 8.5%
Table 3k: size 4 capsule, 0.03 mg Compound 1, Poloxamer 188:food grade GMS 50:50, 60 min
  mean value (n = 6) of % of Compound 1 released: 18.0%
Table 3k: size 4 capsule, 0.03 mg Compound 1, Poloxamer 188:food grade GMS 50:50, 120 min
  mean value (n = 6) of % of Compound 1 released: 39.3%
Table 3k: size 4 capsule, 0.03 mg Compound 1, Poloxamer 188:food grade GMS 50:50, 180 min
  mean value (n = 6) of % of Compound 1 released: 58.6%
Table 3k: size 4 capsule, 0.03 mg Compound 1, Poloxamer 188:food grade GMS 50:50, 240 min
  mean value (n = 6) of % of Compound 1 released: 75.2%
